Patent US6444695B1, “Inhibition of thrombin-induced platelet aggregation by creatine kinase inhibitors” (The Regents of the University of California, priority 2000, dated 2002)
“Also recorded” adds a separate entry of the source.

What was measured:
[1] = test system: human umbilical vein endothelial cells (HUVEC); test: Intracellular calcium assay (Fluo-3, FLIPR) in HUVEC after thrombin; type: cell-based
Experimental: To assay for intracellular calcium levels, cell media was decanted and replaced with Fluo-3 AM (Molecular Probes) in […] of loading buffer with 1% Fetal Calf Serum (FCS) for 1 hour. Cells were rinsed with loading buffer and the 96-well plate was placed into a Fluorometric Imaging Plate Reader (FLIPR, Molecular Devices, Sunnyvale, Calif.). The relative intracellular calcium levels were monitored at […] for 210 seconds in 4 to 8 identically treated wells. To monitor calcium release from intracellular stores thrombin was delivered in buffer containing 10 mM EDTA. Various phospholipase C inhibitors were applied as well.

[2] = test system: human umbilical vein endothelial cells (HUVEC); test: Thrombin-induced cell rounding / contraction of HUVEC; type: cell-based; details: for % of cells round after thrombin: thrombin 10 pM 20 minutes (control 2%, thrombin alone 80%); for effect on thrombin-induced cell rounding / contraction: thrombin 10 pM 20 minutes
Experimental: Primary cultures of pooled Human umbilical vein endothelial cells (HUVEC) cells were purchased from Clonetics (Walkersville, Md.) and cultured according to the manufacturer's protocol. About 2500 cells/cm^2 were cultured in Endothelial Cell Growth Medium BulletKit-2 (Clonetics, Walkersville, Md.) on collagen (Gibco, Grand Island, N.Y.) coated RS Lab Tek II slides for 5 days until confluent. Cells were then cultured in low serum (0.5%) medium overnight. Cells were treated with 50 mM cyclocreatine for 3 to 4 hours, or with […] ROCK (Rho Kinase) inhibitor Y-27632 for 30 minutes, as described in Maekawa et al., (1999) Science 285: 895-8, hereby incorporated by reference in its entirety.
Thrombin was delivered at a final concentration of 10 pM for 20 minutes to endothelial cells. F-actin was stained with Alexa 594 phalloidin (Molecular Probes). HUVECs were examined under fluorescence and phase contrast micrography, and cells were scored as either round or flat.

[3] = test system: astrocytes; test: Intracellular calcium assay (Fluo-3, FLIPR) in astrocytes after thrombin; type: cell-based, rat; details: thrombin 10 pM, cyclocreatine 50 mM 4 h or U-73122 1 μM 10 min
Experimental: Intracellular Calcium Assay. Astrocytes were treated with or without 50 mM cyclocreatine for 4 h. Cell medium was decanted and replaced with Fluo-3 AM (Molecular Probes) for 1 h. Some wells received 1 μM U-73122 (Biomol, Plymouth Meeting, Pa.) for 10 min before 10 pM thrombin and 10 mM EDTA injection. The relative intracellular calcium levels were monitored at […] for 210 sec in 4-8 identically treated wells by using a Fluorometric Imaging Plate Reader (Molecular Devices).

[4] = test system: Ad12HER10 retinoblasts; test: Thrombin/PAR-1 morphological response in retinoblasts; type: cell-based, human; details: Ad12HER10, data not shown
Experimental: Dominant Negative CKB Studies. The dominant negative CKB mutant C283S, described in Lin, et al., (1994) Biochim. Biophys. Acta 1206: 97-104, was cloned into the pIRES-EGFP vector (CLONTECH) and transfected for 6 h with Novafector (VennNova, LCC) into Ad12HER10 retinoblasts seeded into Lab-Tek II slides (Nunc). After 18 h, cells were differentiated with 2 mM dibutyryl cAMP in serum-free medium for 6 h. After addition of thrombin (160 nM) for 2 h, transfected cells (20-30%) were identified by fluorescence micrography, and the cell morphology of approximately 100 transfected cells was examined with phase-contrast illumination and scored blind to treatment as either refractile or flat.

[5] = test system: primary cortical astrocyte cultures; test: Astrocyte morphology studies (thrombin-induced shape change, stellate vs flat); type: cell-based, rat; details: for effect on morphological response of astrocytes to thrombin / fold greater number of astrocytes remaining stellate after thrombin: 10 pM thrombin 2 h; for fold greater number of astrocytes remaining stellate after thrombin: versus thrombin alone
Experimental: Coimmunoprecipitation. Primary cortical astrocyte cultures were prepared from 1- to 2-day-old Sprague-Dawley rats as described in Donovan, et al., (1997) J. Neurosci. 17: 5316-5326. Astrocytes were solubilized and incubated with control antibody (rabbit IgG) or anti-PAR-1 antibody overnight at 4° C. in the presence of protein A-Sepharose. Immunoprecipitation products were either subjected to CKB activity assays or separated by SDS/PAGE and analyzed on immunoblots with anti-CKB antibodies.
(§1) Astrocyte Morphology Studies. Oligonucleotides based on a CKB antisense sequence (GUGUCUGCAACAGCUUAGC-CAUCAG), a control reverse sequence ([…]), and an identical antisense sequence rendered insensitive to RNaseH were purchased from Sequitur (Natick, Mass.) and transformed into primary astrocyte cultures with Lipofectin (GIBCO/BRL) for 1 h. After 18 h, cells were differentiated in 1.5 mM dibutyryl cAMP for 2 h. A total of 10 pM thrombin was added for 2 h for a maximal response, and the morphology of approximately 200 cells was examined under phase-contrast micrography and scored as either stellate or flat. Antisense knockdown of CKB was confirmed by immunoblot analysis. Morphology assays were also performed after a 4-h treatment with 50 mM cyclocreatine.

[6] = test system: astrocytes; test: Total cellular ATP levels and cell viability; type: cell-based, rat; details: data not shown
Experimental: Materials. The protein-protein interaction screen was performed by using the Matchmaker GAL4 two-hybrid system and a rat brain cDNA library (CLONTECH). Rabbit anti-PAR-1 antibody was a gift from M. Runge (University of Texas Medical Branch, Galveston), anti-CKB antibodies were obtained from Chemicon, and anti-RhoA was from Santa Cruz Biotechnology. CKB activity was measured with CK 520 Sigma. ATP levels were measured with the bioluminescent somatic cell assay (Sigma FL-ASC). Thrombin and purified CKB were purchased from Calbiochem, and cyclocreatine was purchased from Sigma. Site-directed mutagenesis was performed with Quick Change (Stratagene). G. Molloy (Delaware University) graciously provided the CKB plasmid, and T. Ma (Baylor College, Houston) provided the dominant negative CKB mutant. Statistical analysis was carried out by using two-way ANOVA.

[7] = test system: RhoA; test: RhoA activation and translocation assay; type: cell-based, rat; details: astrocytes, 50 mM cyclocreatine 4 h
Experimental: RhoA Activation and Translocation Assay. Active RhoA levels were measured in primary rat astrocytes as described in Ren, et al., (1999) EMBO J. 18: 578-585. Astrocytes received a 4-h 50 mM cyclocreatine treatment before the thrombin (10 pM) addition for 10 min. Cell lysates were incubated with GST-Rhotekin binding domain (20-30 μg) for 45 min, washed, and immunoprobed with anti-RhoA antibody. For membrane RhoA, crude membrane fractions were prepared as described in Donovan, et al., (1997) J. Neurosci. 17: 5316-5326. Fifteen micrograms of membrane protein fractions was separated by SDS/PAGE and immunoblotted with anti-RhoA antibody.

[8] = test system: platelets; test: Thrombin-induced platelet aggregation in platelet-rich plasma (Chrono-Log aggregometer); type: cell-based, human; details: 30 min preincubation, 1 nM thrombin, PRP
Experimental: Blood from healthy volunteers was collected in an anti-coagulant citrate solution according to standard protocols. The whole blood/citrate solution was centrifuged at 200×g for 10 minutes to obtain platelet-rich plasma (PRP). The platelet count, as determined by Coulter Counter, was 2.88×10^8/mL. Aliquots (0.5 mL each) of the PRP were incubated with and without various concentrations of cyclocreatine (0 to 10 mM final concentration) for 30 minutes at room temperature. The aggregation assay was then carried out in the presence of thrombin (10 ul of thrombin was added to each aliquot, to a final concentration of 1 nM) with stirring at 37° C. using a Chrono-Log Whole Blood Aggregometer. (Chronolog Corp., Havertown, Pa.) Absorbance was measured at 500 nm.

[9] = test system: CKB; test: CKB immunoblot after antisense knockdown; type: cell-based, rat; details: astrocytes, 18 h after transfection
Experimental: as §1

Compound: CCCCCCCCCCCCCCCCCCOCC(COP(=O)([O-])OCC[N+](C)(C)C)OC (centres unmarked) [ET18-OCH3]
- effect on thrombin-induced calcium response (peak fluorescence) [1]: completely abolished

Compound: C[C@@H](N)[C@H]1CC[C@H](C(=O)Nc2ccncc2)CC1 [ROCK (Rho Kinase) inhibitor, Y-27632, reference compound]
- % of cells round after thrombin ([2]; 10 mM Y-27632 for 30 minutes): 2%
- effect on thrombin-induced cell rounding / contraction [2]: completely blocked

Compound: COc1ccc2c(c1)CC[C@@H]1[C@@H]2CC[C@]2(C)[C@@H](NCCCCCCN3C(=O)C=CC3=O)CC[C@@H]12 [U-73122, reference compound]
- effect on thrombin-induced calcium response (peak fluorescence) [1]: completely abolished
- effect on thrombin-induced peak intracellular calcium [3]: inhibited

Compound: NC1=NCCN1CC(=O)O [cyclocreatine]
- % of cells round after thrombin ([2]; maximum dose of cyclocreatine (50 mM, 3 to 4 hours)): 20%
- effect on thrombin-induced cell rounding / contraction [2]: inhibited; also recorded: dose-dependent protective effect; also recorded: protected
- effect on thrombin/PAR-1 morphological response in retinoblasts [4]: blocked
- effect on morphological response of astrocytes to thrombin [5]: dose-dependent decrease
- fold greater number of astrocytes remaining stellate after thrombin [5]: ≤ 4 fold
- effect on morphological response of astrocytes to thrombin ([5]; listed as Cyclocreatine): protects
- effect on cell viability [6]: no effect
- effect on total cellular ATP levels [6]: no effect
- RhoA translocation to the membrane after thrombin treatment ([7]; thrombin 10 pM): almost no translocation
- GTP-RhoA after thrombin treatment (GST-rhotekin pull-down) ([7]; thrombin 10 pM 10 min): significantly reduced
- effect on thrombin-induced calcium response (peak fluorescence) [1]: almost no effect; also recorded: no significant changes
- % Aggregation of Platelets ([8]; 1 mM cyclocreatine): 88%
- % Aggregation of Platelets ([8]; 5 mM cyclocreatine): 11%
- % Aggregation of Platelets ([8]; 10 mM cyclocreatine): 0%
- effect on thrombin-induced peak intracellular calcium [3]: only a minor decline

Compound: C/C=C(/C)C(=O)O[C@H]1C(C)=C2[C@H]([C@@H]1OC(=O)CCCCCCC)[C@@](C)(OC(C)=O)C[C@H](OC(=O)CCC)[C@@]1(O)[C@H]2OC(=O)[C@@]1(C)O [thapsigargin]
- effect on thrombin-induced calcium response (peak fluorescence) [1]: completely abolished

Compound: CKB antisense ODNs: antisense oligonucleotide GUGUCUGCAACAGCUUAGC-CAUCAG directed toward the 3′ end of the CKB mRNA (Sequitur) (antisense GUGUCUGCAACAGCUUAGCCAUCAG; chemistry not given here)
- effect on morphological response of astrocytes to thrombin [5]: no longer responded
- fold greater number of astrocytes remaining stellate after thrombin [5]: > 3 fold
- effect on astrocyte morphology without thrombin ([5]; treatment alone): without affecting
- effect on cell viability [6]: did not affect
- effect on total cellular ATP levels [6]: did not affect
- CKB expression level (Western blot) [9]: significantly lower levels

Compound: reverse sequence ODN (Rev): control reverse sequence oligonucleotide GACUACCGAUUCGACAACGUCUGUG (chemistry not given here) [reference compound]
- effect on morphological response of astrocytes to thrombin [5]: Neither a reverse sequence ODN (Rev) nor the ODN rendered insensitive to RNaseH had any significant effect
- CKB expression level (Western blot) [9]: Neither a reverse sequence ODN (Rev) nor the ODN rendered insensitive to RNaseH had any significant effect
